In brackets after ≈: the same amount, converted by molar mass. Bridge positions count the residues as written; N and C are the ends. Peptide text beside a SMILES is read from it.
What was measured:
P. aeruginosa ATCC 19660 = format: cell-based, Pseudomonas aeruginosa; conditions: cation adjusted Mueller-Hinton broth, ~10^6 CFU/mL, 24 h, 37 °C, OD600 <0.1 in at least 3 of 4 wells, 2-128 μg/mL; shaded values previously reported ref 18
Outline: (§1)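 Overnight TSB cultures (37 °C) diluted to approx. 10^6 CFU/mL, 2X CAMHB; fungal isolate in potato dextrose broth. dAMP 2-fold series 2–128 μg/mL, n=4. 24 h, 37 °C, A600; MIC: ≥3/4 wells OD <0.1.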

P. aeruginosa ATCC 27853 = format: cell-based, Pseudomonas aeruginosa; conditions: cation adjusted Mueller-Hinton broth, ~10^6 CFU/mL, 24 h, 37 °C, OD600 <0.1 in at least 3 of 4 wells, 2-128 μg/mL; shaded values previously reported ref 18
Outline: as §1

P. aeruginosa 6186 = format: cell-based, Pseudomonas aeruginosa; conditions: cation adjusted Mueller-Hinton broth, ~10^6 CFU/mL, 24 h, 37 °C, OD600 <0.1 in at least 3 of 4 wells, 2-128 μg/mL; shaded values previously reported ref 18
Outline: as §1

K. pneumonia ATCC 10031 = format: cell-based, Klebsiella pneumoniae; conditions: cation adjusted Mueller-Hinton broth, ~10^6 CFU/mL, 24 h, 37 °C, OD600 <0.1 in at least 3 of 4 wells, 2-128 μg/mL; shaded values previously reported ref 18
Outline: as §1

K. pneumonia 6069 = format: cell-based, Klebsiella pneumoniae; conditions: cation adjusted Mueller-Hinton broth, ~10^6 CFU/mL, 24 h, 37 °C, OD600 <0.1 in at least 3 of 4 wells, 2-128 μg/mL; shaded values previously reported ref 18
Outline: as §1

[1] = tested on: Candida parapsilosis Y-1763; format: cell-based; conditions: potato dextrose broth, 24 h, 37 °C, OD600 <0.1 in at least 3 of 4 wells, dose range 2 to 128 µg/mL; shaded values previously reported ref 17
Outline: as §1

[2] = tested on: Candida parapsilosis Y-1761; format: cell-based; conditions: potato dextrose broth, 24 h, 37 °C, OD600 <0.1 in at least 3 of 4 wells, dose range 2 to 128 µg/mL; shaded values previously reported ref 17
Outline: as §1

E. cloacae 6053 = format: cell-based; conditions: cation adjusted Mueller-Hinton broth, ~10^6 CFU/mL, 24 h, 37 °C, OD600 <0.1 in at least 3 of 4 wells, 2-128 μg/mL; shaded values previously reported ref 18
Outline: as §1

E. cloacae 6054 = format: cell-based; conditions: cation adjusted Mueller-Hinton broth, ~10^6 CFU/mL, 24 h, 37 °C, OD600 <0.1 in at least 3 of 4 wells, 2-128 μg/mL; shaded values previously reported ref 18
Outline: as §1

[3] = tested on: Aspergillus fumigatus 9651; format: cell-based; conditions: potato dextrose broth, 24 h, 37 °C, OD600 <0.1 in at least 3 of 4 wells, dose range 2 to 128 µg/mL; shaded values previously reported ref 17
Outline: as §1

Candida albicans Y-6359 = format: cell-based; conditions: potato dextrose broth, 24 h, 37 °C, OD600 <0.1 in at least 3 of 4 wells, dose range 2 to 128 µg/mL; shaded values previously reported ref 17
Outline: as §1

[4] = tested on: Aspergillus fumigatus 9648; format: cell-based; conditions: potato dextrose broth, 24 h, 37 °C, OD600 <0.1 in at least 3 of 4 wells, dose range 2 to 128 µg/mL; shaded values previously reported ref 17
Outline: as §1

S. epidermis ATCC 51625 = format: cell-based; conditions: cation adjusted Mueller-Hinton broth, ~10^6 CFU/mL, 24 h, 37 °C, OD600 <0.1 in at least 3 of 4 wells, 2-128 μg/mL; shaded values previously reported ref 18
Outline: as §1

[5] = tested on: Absidia corymbifera NRRL 6251; format: cell-based; conditions: potato dextrose broth, 24 h, 37 °C, OD600 <0.1 in at least 3 of 4 wells, dose range 2 to 128 µg/mL; shaded values previously reported ref 17
Outline: as §1

[6] = tested on: Mucor circinelloides NRRL 3631; format: cell-based; conditions: potato dextrose broth, 24 h, 37 °C, OD600 <0.1 in at least 3 of 4 wells, dose range 2 to 128 µg/mL; shaded values previously reported ref 17
Outline: as §1

Candida albicans Y-326 = format: cell-based; conditions: potato dextrose broth, 24 h, 37 °C, OD600 <0.1 in at least 3 of 4 wells, dose range 2 to 128 µg/mL; shaded values previously reported ref 17
Outline: as §1

[7] = tested on: Aspergillus flavus MYA-1004; format: cell-based; conditions: potato dextrose broth, 24 h, 37 °C, OD600 <0.1 in at least 3 of 4 wells, dose range 2 to 128 µg/mL; shaded values previously reported ref 17
Outline: as §1

Candida krusei Y-27803 = format: cell-based; conditions: potato dextrose broth, 24 h, 37 °C, OD600 <0.1 in at least 3 of 4 wells, dose range 2 to 128 µg/mL; shaded values previously reported ref 17
Outline: as §1

Candida krusei Y-27825 = format: cell-based; conditions: potato dextrose broth, 24 h, 37 °C, OD600 <0.1 in at least 3 of 4 wells, dose range 2 to 128 µg/mL; shaded values previously reported ref 17
Outline: as §1

[8] = tested on: Fusarium solani NRRL 28548; format: cell-based; conditions: potato dextrose broth, 24 h, 37 °C, OD600 <0.1 in at least 3 of 4 wells, dose range 2 to 128 µg/mL; shaded values previously reported ref 17
Outline: as §1

[9] = tested on: Aspergillus flavus MYA-3651; format: cell-based; conditions: potato dextrose broth, 24 h, 37 °C, OD600 <0.1 in at least 3 of 4 wells, dose range 2 to 128 µg/mL; shaded values previously reported ref 17
Outline: as §1

S. aureus 6061 = format: cell-based, Staphylococcus aureus; conditions: cation adjusted Mueller-Hinton broth, ~10^6 CFU/mL, 24 h, 37 °C, OD600 <0.1 in at least 3 of 4 wells, 2-128 μg/mL; shaded values previously reported ref 18
Outline: as §1

MRSA 6381 = format: cell-based, Staphylococcus aureus; conditions: cation adjusted Mueller-Hinton broth, ~10^6 CFU/mL, 24 h, 37 °C, OD600 <0.1 in at least 3 of 4 wells, 2-128 μg/mL; shaded values previously reported ref 18
Outline: as §1

MRSA ATCC 33592 = format: cell-based, Staphylococcus aureus; conditions: cation adjusted Mueller-Hinton broth, ~10^6 CFU/mL, 24 h, 37 °C, OD600 <0.1 in at least 3 of 4 wells, 2-128 μg/mL; shaded values previously reported ref 18
Outline: as §1

S. aureus B-767 = format: cell-based, Staphylococcus aureus; conditions: cation adjusted Mueller-Hinton broth, ~10^6 CFU/mL, 24 h, 37 °C, OD600 <0.1 in at least 3 of 4 wells, 2-128 μg/mL; shaded values previously reported ref 18
Outline: as §1

MRSA 6313 = format: cell-based, Staphylococcus aureus; conditions: cation adjusted Mueller-Hinton broth, ~10^6 CFU/mL, 24 h, 37 °C, OD600 <0.1 in at least 3 of 4 wells, 2-128 μg/mL; shaded values previously reported ref 18
Outline: as §1

[10] = tested on: vulvovaginal candidiasis infection; conditions: cited from earlier work
From the text: The dAMPs RP504, RP554 and RP557 were thus tested for their ability to treat a rodent vulvovaginal candidiasis infection. […] A daily dose with a 2% concentration lowered the CFU/sample by more than 4 logs compared to the con ...

[11] = tested on: preformed and mature MRSA biofilm; conditions: cited from earlier work
From the text: (§2) Early and empiric treatment is required due to the rapid emergence of both bacterial and fungal resistance and resilience due to biofilm formation multi-drug resistant organisms and their associated biofilms play a significant role in the pathogenicity and chronicity of wound infections. The resistance of bacteria and fungi residing in biofilms is due to the biofilm matrix acting as a fortified barrier and the presence of slow-growing microbes with poor metabolic activity, known as persisters. The dAMPs direct perturbation of cellular membranes is effective at eradicating biofilms. RP55 ...

Candida biofilm = conditions: cited from earlier work
From the text: as §2

A. baumannii ATCC 17978 = format: cell-based, Acinetobacter baumannii; conditions: cation adjusted Mueller-Hinton broth, ~10^6 CFU/mL, 24 h, 37 °C, OD600 <0.1 in at least 3 of 4 wells, 2-128 μg/mL; shaded values previously reported ref 18
Outline: as §1

A. baumannii 6838 = format: cell-based, Acinetobacter baumannii; conditions: cation adjusted Mueller-Hinton broth, ~10^6 CFU/mL, 24 h, 37 °C, OD600 <0.1 in at least 3 of 4 wells, 2-128 μg/mL; shaded values previously reported ref 18
Outline: as §1

A. baumannii 6043 = format: cell-based, Acinetobacter baumannii; conditions: cation adjusted Mueller-Hinton broth, ~10^6 CFU/mL, 24 h, 37 °C, OD600 <0.1 in at least 3 of 4 wells, 2-128 μg/mL; shaded values previously reported ref 18
Outline: as §1

CC[C@H](C)[C@@H]1NC(=O)CNC(=O)[C@H](CCCCN)NC(=O)[C@H](Cc2ccc(O)cc2)NC(=O)[C@@H]2CSSC[C@H](NC1=O)C(=O)N[C@@H](Cc1ccccc1)C(=O)N[C@@H](CCCCN)C(=O)N[C@@H](CCCCN)C(=O)N[C@H](C(=O)N[C@@H](CCCCN)C(N)=O)CSSC[C@H](NC(=O)[C@H](Cc1ccccc1)NC(=O)[C@@H](N)CCCNC(=N)N)C(=O)N[C@@H](Cc1c[nH]c3ccccc13)C(=O)N[C@@H](CCCCN)C(=O)N[C@@H](C(C)C)C(=O)N2 [RP557] (H-RFCWKVCYKGICFKKCK-NH2; disulfide 3-16, 7-12)
MIC against P. aeruginosa ATCC 19660 (P. aeruginosa ATCC 19660): 4 µg/mL (≈ 1.87 µM)
MIC against P. aeruginosa ATCC 27853 (P. aeruginosa ATCC 27853): 4 µg/mL (≈ 1.87 µM)
MIC against P. aeruginosa 6186 (P. aeruginosa 6186): 4 µg/mL (≈ 1.87 µM)
MIC against K. pneumonia ATCC 10031 (K. pneumonia ATCC 10031): 8 µg/mL (≈ 3.75 µM)
MIC against K. pneumonia 6069 (K. pneumonia 6069): 4 µg/mL (≈ 1.87 µM)
MIC against Candida parapsilosis Y-1763 [1]: 2 µg/mL (≈ 0.936 µM)
MIC against Candida parapsilosis Y-1761 [2]: 16 µg/mL (≈ 7.49 µM)
MIC against E. cloacae 6053 (E. cloacae 6053): 8 µg/mL (≈ 3.75 µM)
MIC against E. cloacae 6054 (E. cloacae 6054): 8 µg/mL (≈ 3.75 µM)
MIC against Aspergillus fumigatus 9651 [3]: 64 µg/mL (≈ 30 µM)
MIC against Candida albicans Y-6359 (Candida albicans Y-6359): 4 µg/mL (≈ 1.87 µM)
MIC against Aspergillus fumigatus 9648 [4]: 64 µg/mL (≈ 30 µM)
MIC against S. epidermis ATCC 51625 (S. epidermis ATCC 51625): 8 µg/mL (≈ 3.75 µM)
MIC against Absidia corymbifera NRRL 6251 [5]: 2 µg/mL (≈ 0.936 µM)
MIC against Mucor circinelloides NRRL 3631 [6]: 64 µg/mL (≈ 30 µM)
MIC against Candida albicans Y-326 (Candida albicans Y-326): 16 µg/mL (≈ 7.49 µM)
MIC against Aspergillus flavus MYA-1004 [7]: 64 µg/mL (≈ 30 µM)
MIC against Candida krusei Y-27803 (Candida krusei Y-27803): 16 µg/mL (≈ 7.49 µM)
MIC against Candida krusei Y-27825 (Candida krusei Y-27825): 16 µg/mL (≈ 7.49 µM)
MIC against Fusarium solani NRRL 28548 [8]: 2 µg/mL (≈ 0.936 µM)
MIC against Aspergillus flavus MYA-3651 [9]: 64 µg/mL (≈ 30 µM)
MIC against S. aureus 6061 (S. aureus 6061): 8 µg/mL (≈ 3.75 µM)
MIC against MRSA 6381 (MRSA 6381): 4 µg/mL (≈ 1.87 µM)
MIC against MRSA ATCC 33592 (MRSA ATCC 33592): 4 µg/mL (≈ 1.87 µM)
MIC against S. aureus B-767 (S. aureus B-767): 4 µg/mL (≈ 1.87 µM)
MIC against MRSA 6313 (MRSA 6313): 4 µg/mL (≈ 1.87 µM)
lowering of CFU/sample compared to control samples ([10]; daily dose with a 2% concentration, dose-response protocol): more than 4 logs
reduction of CFU/tissue sample ([10]; rodent vulvovaginal candidiasis, after three days of daily treatment): ≥ 2.5 logs
disruption of preformed and mature MRSA biofilm [11]: completely disrupted
disruption of Candida biofilm (Candida biofilm): completely disrupted
MIC against A. baumannii ATCC 17978 (A. baumannii ATCC 17978): 16 µg/mL (≈ 7.49 µM)
MIC against A. baumannii 6838 (A. baumannii 6838): 8 µg/mL (≈ 3.75 µM)
MIC against A. baumannii 6043 (A. baumannii 6043): 8 µg/mL (≈ 3.75 µM)
